In this test the target is T1, Type-1 angiotensin II receptor B (Rattus norvegicus, UniProt P29089).
T1 sequence (P29089 whole entry): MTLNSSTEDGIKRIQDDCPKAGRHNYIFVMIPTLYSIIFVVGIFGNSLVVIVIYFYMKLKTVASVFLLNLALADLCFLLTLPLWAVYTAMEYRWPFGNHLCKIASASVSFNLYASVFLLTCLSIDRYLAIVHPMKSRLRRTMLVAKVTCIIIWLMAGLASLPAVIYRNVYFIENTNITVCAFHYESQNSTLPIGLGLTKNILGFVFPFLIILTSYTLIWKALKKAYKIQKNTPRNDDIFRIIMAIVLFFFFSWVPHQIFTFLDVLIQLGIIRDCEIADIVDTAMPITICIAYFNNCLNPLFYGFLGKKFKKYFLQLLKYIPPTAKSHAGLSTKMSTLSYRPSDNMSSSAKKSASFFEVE
The test can be described thus: Inhibition of binding of [125I]All at the angiotensin II type 1 receptor (AT1 receptor) in rat liver membranes.

pKi: −log10 of the molar value.

Broadly, the pKi is the negative decadic logarithm of the Ki, by convention in mol/L. Read a low pKi as a high Ki.

In the case of `CCc1nn(Cc2ccc(-c3ccccc3-c3nnn[nH]3)cc2)c(=NC(=O)c2ccccc2Cl)s1` [2-Chloro-N-[5-ethyl-3-[2'-(1H-tetrazol-5-yl)-biphenyl-4-ylmethyl]-3H-[1,3,4]thiadiazol-(2Z)-ylidene]-benzamide], the pKi is 8.47.
In the case of `CCc1nn(Cc2ccc(-c3ccccc3-c3nnn[nH]3)cc2)c(=NC(=O)c2ccccc2)s1` [N-[5-Ethyl-3-[2'-(1H-tetrazol-5-yl)-biphenyl-4-ylmethyl]-3H-[1,3,4]thiadiazol-(2Z)-ylidene]-benzamide] it was 7.44.
In the case of `CCc1nn(Cc2ccc(-c3ccccc3-c3nnn[nH]3)cc2)c(=NC(=O)c2ccccc2C(=O)O)s1` [N-[5-Ethyl-3-[2'-(1H-tetrazol-5-yl)-biphenyl-4-ylmethyl]-3H-[1,3,4]thiadiazol-(2Z)-ylidene]-phthalamic acid] it was 9.21.

(Values after BindingDB's records for doi:10.7270/Q29S1T6B (n/a, 1997).)
